Drawing on the supplement of paper PMC10307832, this text covers relative viability for eight cell lines.

What all share (test): relative viability (nuclei count vs DMSO), 5 days (fraction); higher = more cells survive
Compound in the assay “IPA-3 + OSI-027”: C1=CC=C2C(=C1)C=CC(=C2SSC3=C(C=CC4=CC=CC=C43)O)O [IPA-3] + COc1cccc2cc(-c3nc([C@H]4CC[C@H](C(=O)O)CC4)n4ncnc(N)c34)[nH]c12 [OSI-027] (partner 0.5 µM)
The essentials:
(§1)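 Lung cancer cell lines were pin-tool dosed in 1536-well plates on the day after seeding, with either a lone drug or a fixed anchor-drug dose plus five library-drug doses (not always all listed) in √10 steps. Nuclei were counted on 4× images after 5 days. Relative viability is the ratio of treated-well to vehicle-well nuclei counts, with each value a median of duplicate plates.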

Compound in the assay “IPA-3 + Vorinostat”: C1=CC=C2C(=C1)C=CC(=C2SSC3=C(C=CC4=CC=CC=C43)O)O [IPA-3] + O=C(CCCCCCC(=O)Nc1ccccc1)NO [Vorinostat] (partner 1 µM)
Put shortly: as §1

Compound in the assay “IPA-3 + Pemetrexed”: C1=CC=C2C(=C1)C=CC(=C2SSC3=C(C=CC4=CC=CC=C43)O)O [IPA-3] + Nc1nc2[nH]cc(CCc3ccc(C(=O)N[C@@H](CCC(=O)O)C(=O)O)cc3)c2c(=O)[nH]1 [Pemetrexed] (partner 0.2 µM)
The essentials:
as §1

Compound in the assay “Doramapimod + Pictilisib”: Cc1ccc(-n2nc(C(C)(C)C)cc2NC(=O)Nc2ccc(OCCN3CCOCC3)c3ccccc23)cc1 [Doramapimod] + CS(=O)(=O)N1CCN(Cc2cc3nc(-c4cccc5[nH]ncc45)nc(N4CCOCC4)c3s2)CC1 [Pictilisib] (partner 1 µM)
The essentials: as §1

Turning to HCC-366, the relative viability is 0.978 with IPA-3 + OSI-027 (first compound 0.2 µM); 0.709 in the assay with IPA-3 + OSI-027 (first compound 0.6325 µM); 0.802 with IPA-3 + OSI-027 (first compound 2 µM); 0.93 with IPA-3 + OSI-027 (first compound 6.325 µM); 1.07 with IPA-3 + OSI-027 (first compound 20 µM); 0.518 with IPA-3 + Vorinostat (first compound 0.2 µM). The relative viability stood at 0.287 in the assay with IPA-3 + Vorinostat (first compound 0.6325 µM); 0.339 with IPA-3 + Vorinostat (first compound 2 µM); 0.341 with IPA-3 + Vorinostat (first compound 6.325 µM); 0.318 with IPA-3 + Vorinostat (first compound 20 µM); 0.192 with IPA-3 + Pemetrexed (first compound 0.2 µM); 0.147 with IPA-3 + Pemetrexed (first compound 0.6325 µM). Besides, the relative viability with IPA-3 + Pemetrexed (first compound 2 µM) came out at 0.21; in the assay with IPA-3 + Pemetrexed (first compound 6.325 µM) it was 0.169; with IPA-3 + Pemetrexed (first compound 20 µM) it was 0.178; with Doramapimod + Pictilisib (first compound 0.02 µM), 0.15; with Doramapimod + Pictilisib (first compound 0.06325 µM), 0.137; with Doramapimod + Pictilisib (first compound 0.2 µM), 0.131. Besides, the relative viability was 0.125 with Doramapimod + Pictilisib (first compound 0.6325 µM) and 0.136 with Doramapimod + Pictilisib (first compound 2 µM).

Regarding HCC-827, the relative viability amounted to 0.842 in the assay with IPA-3 + OSI-027 (first compound 0.2 µM); 0.69 with IPA-3 + OSI-027 (first compound 0.6325 µM); 0.773 with IPA-3 + OSI-027 (first compound 2 µM); 0.724 with IPA-3 + OSI-027 (first compound 6.325 µM); 0.703 with IPA-3 + OSI-027 (first compound 20 µM); 0.87 with IPA-3 + Vorinostat (first compound 0.2 µM). In addition, the relative viability was determined as 0.871 with IPA-3 + Vorinostat (first compound 0.6325 µM); 0.739 with IPA-3 + Vorinostat (first compound 2 µM); 0.864 with IPA-3 + Vorinostat (first compound 6.325 µM); 0.771 with IPA-3 + Vorinostat (first compound 20 µM); 0.264 with IPA-3 + Pemetrexed (first compound 0.2 µM); 0.261 with IPA-3 + Pemetrexed (first compound 0.6325 µM). Further, the relative viability came to 0.241 with IPA-3 + Pemetrexed (first compound 2 µM); 0.254 with IPA-3 + Pemetrexed (first compound 6.325 µM); 0.254 in the assay with IPA-3 + Pemetrexed (first compound 20 µM); 1.15 with Doramapimod + Pictilisib (first compound 0.02 µM); 0.972 with Doramapimod + Pictilisib (first compound 0.06325 µM); 1.06 in the assay with Doramapimod + Pictilisib (first compound 0.2 µM). The relative viability with Doramapimod + Pictilisib (first compound 0.6325 µM) turned out to be 0.933; with Doramapimod + Pictilisib (first compound 2 µM), 0.738.

For the cell line HOP-62, the relative viability in the assay with IPA-3 + OSI-027 (first compound 0.2 µM) was 0.985; with IPA-3 + OSI-027 (first compound 0.6325 µM) it was 0.808; in the assay with IPA-3 + OSI-027 (first compound 2 µM), 0.937; with IPA-3 + OSI-027 (first compound 6.325 µM), 0.783; in the assay with IPA-3 + OSI-027 (first compound 20 µM) it was 0.616; with IPA-3 + Vorinostat (first compound 0.2 µM) it was 0.72. The relative viability is 0.556 with IPA-3 + Vorinostat (first compound 0.6325 µM); 0.597 with IPA-3 + Vorinostat (first compound 2 µM); 0.698 with IPA-3 + Vorinostat (first compound 6.325 µM); 0.717 with IPA-3 + Vorinostat (first compound 20 µM); 0.333 with IPA-3 + Pemetrexed (first compound 0.2 µM); 0.315 with IPA-3 + Pemetrexed (first compound 0.6325 µM). The relative viability with IPA-3 + Pemetrexed (first compound 2 µM) stood at 0.345; with IPA-3 + Pemetrexed (first compound 6.325 µM) it was 0.313; with IPA-3 + Pemetrexed (first compound 20 µM) it was 0.328; with Doramapimod + Pictilisib (first compound 0.02 µM), 0.761; with Doramapimod + Pictilisib (first compound 0.06325 µM), 0.714; in the assay with Doramapimod + Pictilisib (first compound 0.2 µM) it was 0.742. Moreover, the relative viability with Doramapimod + Pictilisib (first compound 0.6325 µM) is 0.463; with Doramapimod + Pictilisib (first compound 2 µM) it was 0.438.

For IA-LM, the relative viability in the assay with IPA-3 + Vorinostat (first compound 0.2 µM) was found to be 1.06; with IPA-3 + Vorinostat (first compound 0.6325 µM) it was 0.922; in the assay with IPA-3 + Vorinostat (first compound 2 µM), 0.925; in the assay with IPA-3 + Vorinostat (first compound 6.325 µM), 0.891; with IPA-3 + Vorinostat (first compound 20 µM), 1.15; with Doramapimod + Pictilisib (first compound 0.02 µM) it was 0.176. The relative viability is 0.257 in the assay with Doramapimod + Pictilisib (first compound 0.06325 µM), 0.343 in the assay with Doramapimod + Pictilisib (first compound 0.6325 µM) and 0.288 with Doramapimod + Pictilisib (first compound 2 µM).

Turning to LC-2-ad, the relative viability came out at 0.937 in the assay with IPA-3 + OSI-027 (first compound 0.2 µM); 0.878 with IPA-3 + OSI-027 (first compound 0.6325 µM); 0.858 with IPA-3 + OSI-027 (first compound 2 µM); 0.871 with IPA-3 + OSI-027 (first compound 6.325 µM); 1.02 in the assay with IPA-3 + OSI-027 (first compound 20 µM); 0.72 in the assay with IPA-3 + Vorinostat (first compound 0.2 µM). For the same cell line, the relative viability with IPA-3 + Vorinostat (first compound 0.6325 µM) was 0.681; with IPA-3 + Vorinostat (first compound 2 µM), 0.788; with IPA-3 + Vorinostat (first compound 6.325 µM), 0.726; with IPA-3 + Vorinostat (first compound 20 µM) it was 0.76; with IPA-3 + Pemetrexed (first compound 0.2 µM) it was 0.294; in the assay with IPA-3 + Pemetrexed (first compound 0.6325 µM), 0.28. Further, the relative viability came to 0.285 in the assay with IPA-3 + Pemetrexed (first compound 2 µM); 0.281 in the assay with IPA-3 + Pemetrexed (first compound 6.325 µM); 0.307 in the assay with IPA-3 + Pemetrexed (first compound 20 µM); 0.303 in the assay with Doramapimod + Pictilisib (first compound 0.02 µM); 0.429 in the assay with Doramapimod + Pictilisib (first compound 0.06325 µM); 0.605 with Doramapimod + Pictilisib (first compound 0.2 µM). For the same cell line, the relative viability with Doramapimod + Pictilisib (first compound 0.6325 µM) was found to be 0.537; with Doramapimod + Pictilisib (first compound 2 µM), 0.267.

Turning to LCLC-97TM1, the relative viability with IPA-3 + OSI-027 (first compound 0.2 µM) turned out to be 0.403; with IPA-3 + OSI-027 (first compound 0.6325 µM), 0.521; with IPA-3 + OSI-027 (first compound 2 µM), 0.436; with IPA-3 + OSI-027 (first compound 6.325 µM) it was 0.498; with IPA-3 + OSI-027 (first compound 20 µM), 0.502; with IPA-3 + Vorinostat (first compound 0.2 µM) it was 1.11. The relative viability with IPA-3 + Vorinostat (first compound 0.6325 µM) came out at 0.875; with IPA-3 + Vorinostat (first compound 2 µM) it was 0.724; in the assay with IPA-3 + Vorinostat (first compound 6.325 µM) it was 0.575; in the assay with IPA-3 + Vorinostat (first compound 20 µM) it was 1.12; with IPA-3 + Pemetrexed (first compound 0.2 µM) it was 0.165; with IPA-3 + Pemetrexed (first compound 0.6325 µM), 0.184. Also, the relative viability with IPA-3 + Pemetrexed (first compound 2 µM) was determined as 0.164; in the assay with IPA-3 + Pemetrexed (first compound 6.325 µM), 0.148; in the assay with IPA-3 + Pemetrexed (first compound 20 µM), 0.179; with Doramapimod + Pictilisib (first compound 0.02 µM), 0.195; in the assay with Doramapimod + Pictilisib (first compound 0.06325 µM) it was 0.162; with Doramapimod + Pictilisib (first compound 0.2 µM), 0.177. The relative viability was determined as 0.18 with Doramapimod + Pictilisib (first compound 0.6325 µM) and 0.206 with Doramapimod + Pictilisib (first compound 2 µM).

LCLC-103H: the relative viability with IPA-3 + OSI-027 (first compound 0.2 µM) is 0.442; in the assay with IPA-3 + OSI-027 (first compound 0.6325 µM), 0.444; in the assay with IPA-3 + OSI-027 (first compound 2 µM), 0.463; in the assay with IPA-3 + OSI-027 (first compound 6.325 µM), 0.486; with IPA-3 + OSI-027 (first compound 20 µM), 0.505; with IPA-3 + Vorinostat (first compound 0.2 µM), 0.849. The relative viability in the assay with IPA-3 + Vorinostat (first compound 0.6325 µM) is 0.807; with IPA-3 + Vorinostat (first compound 2 µM), 0.805; with IPA-3 + Vorinostat (first compound 6.325 µM), 0.865; with IPA-3 + Vorinostat (first compound 20 µM), 0.867; in the assay with IPA-3 + Pemetrexed (first compound 0.2 µM) it was 0.474; with IPA-3 + Pemetrexed (first compound 0.6325 µM) it was 0.463. The relative viability in the assay with IPA-3 + Pemetrexed (first compound 2 µM) was 0.461; with IPA-3 + Pemetrexed (first compound 6.325 µM), 0.504; with IPA-3 + Pemetrexed (first compound 20 µM), 0.476; with Doramapimod + Pictilisib (first compound 0.02 µM) it was 0.57; with Doramapimod + Pictilisib (first compound 0.06325 µM), 0.633; with Doramapimod + Pictilisib (first compound 0.2 µM), 0.64. In addition, the values for the relative viability with Doramapimod + Pictilisib (first compound 0.6325 µM) and with Doramapimod + Pictilisib (first compound 2 µM) were 0.789 and 0.521, respectively.

Turning to LK-2, the relative viability with IPA-3 + OSI-027 (first compound 0.2 µM) came to 0.183; with IPA-3 + OSI-027 (first compound 0.6325 µM), 0.214; with IPA-3 + OSI-027 (first compound 2 µM) it was 0.194; with IPA-3 + OSI-027 (first compound 6.325 µM), 0.27; in the assay with IPA-3 + OSI-027 (first compound 20 µM) it was 0.165; with IPA-3 + Vorinostat (first compound 0.2 µM), 0.321. In addition, the relative viability with IPA-3 + Vorinostat (first compound 0.6325 µM) came to 0.321; with IPA-3 + Vorinostat (first compound 2 µM) it was 0.429; in the assay with IPA-3 + Vorinostat (first compound 6.325 µM), 0.553; with IPA-3 + Vorinostat (first compound 20 µM), 0.506; with IPA-3 + Pemetrexed (first compound 0.2 µM) it was 0.29; with IPA-3 + Pemetrexed (first compound 0.6325 µM), 0.255. Moreover, the relative viability worked out at 0.272 with IPA-3 + Pemetrexed (first compound 2 µM); 0.287 in the assay with IPA-3 + Pemetrexed (first compound 6.325 µM); 0.242 with IPA-3 + Pemetrexed (first compound 20 µM); 0.538 in the assay with Doramapimod + Pictilisib (first compound 0.02 µM); 0.545 with Doramapimod + Pictilisib (first compound 0.06325 µM); 0.464 with Doramapimod + Pictilisib (first compound 0.2 µM). In addition, the relative viability with Doramapimod + Pictilisib (first compound 0.6325 µM) stood at 0.368; with Doramapimod + Pictilisib (first compound 2 µM), 0.349.
